Test system: tracheal mucosal integrity
Experiment: Tracheal mucosal integrity of intubated pre-term lambs (histology)
Type: in vivo
From the text: FIG. 2 compares histological images of tracheal tissue of a pre-term lamb intubated with an ETT not coated with a CSA-containing coating to tracheal tissue of a pre-term lamb intubated with an ETT coated with a CSA-containing coating.
Pre-term lambs were intubated using ETTs including a coating having CSA-131 and tracheal mucosal integrity of the lambs was compared to the tracheal mucosal integrity of a control group (intubated with uncoated ETTs). […] FIG. 2 illustrates the histological appearance of tracheas of the premature lambs that were intubated for three days. […] An area of denuded epithelium (arrowhead), and accumulation of white blood cells (arrow) are highlighted.

**Q.** Which “Histological appearance of trachea (FIG. 2, image (b))” value (ETT coated with a CSA-131 containing coating, intubated for three days) does the source give for CCCCCCCCCCCCNCCC[C@@H](C)[C@H]1CC[C@H]2[C@@H]3[C@H](OCCCN)C[C@@H]4C[C@H](OCCCN)CC[C@]4(C)[C@H]3C[C@H](OCCCN)[C@]12C.Cl.Cl.Cl.Cl [CSA-131] here?
**A.** The value was “the epithelium is intact and the subjacent connective tissue region is not inflamed”.

**Q.** What about the “Tracheal mucosal integrity compared to control group (uncoated ETTs)” value (ETTs including a coating having CSA-131) of the same compound?
**A.** The value was “markedly improved mucosal integrity”.

Reference: patent US20170080128A1, “NOVEL ENDOTRACHEAL TUBE FOR THE REDUCTION OF INTUBATION-RELATED COMPLICATION IN NEONATES AND BABIES” (Brigham Young University, priority 2015, published 2017)
